Assays:
[1] = tested on: BT-20 breast cancer cells; experiment: MTT cytotoxicity assay, BT-20; type: cell-based, human; conditions: BT-20 cells, 48 h incubation, 3 independent experiments, read-out: IC50 (mean ± SE)
Description: Human brain tumor cells lines U87 MG (Cat.# HTB-14), U118 MG (Cat. # HTB-15), U138 (Cat # HTB-16), U373 MG (CAT. # HTB-17), and T98G (Cat. # CRL-1690) and breast cancer cell lines BT-20 (Cat # HTB-19), MDA-MB-231 (Cat # HTB-26), MDA-MB-361 (Cat # HTB-27), and MCF-7 (Cat # HTB-22) were obtained from American Type Culture Collection (ATCC, Rockville, Md.) and maintained as continuous cell lines in Dulbecco's modified Eagles's medium (U87, U118, U138, U373, T98 and BT-20) or Leibovitz's L-15 medium (MDA-MB-231 and MDA-MB-361). All media were supplemented with 10% fetal calf serum (FCS), 4 mM glutamine, 100 U/ml penicillin G and […] streptomycin sulfate. All tissue culture reagents were obtained from Life Technologies Inc. (GIBCO-BRL, Gaithersburg, Md.).
The cytotoxicity of [VO(SO4)(Me2-Phen)2] against human cancer cell lines was analyzed using the MTT (3-[4,5-dimethylthiazol-2-yl]-2,5-diphenyl tetrazolium bromide) assay (Boehringer Mannheim Corp., Indianapolis, Ind.) as described previously (Narla et al., Clin Cancer Res., 4: 1405-1414, 1998). […] The absorbance at 540 nm (a reference wavelength of 690 nm was used) of the solution in each well was measured using a microplate reader (Labsystems). The percent survival and the IC50 values were calculated using Graphpad Prism v2.0 (Graphpad Software, Inc., San Diego, Calif.) as described previously (Narla et al., Supra). […]

MDA-MB-231 cells = experiment: In vitro invasion assay, Matrigel-coated Boyden chambers, MDA-MB-231; type: cell-based, human; conditions: 24 h preincubation, 3 experiments, read-out: Mean IC50 inhibition of invasion through Matrigel matrix
Description: Tumor invasion of the basement membrane is a crucial step in the complex multistage process that leads to metastatic spread. Tumor cells cross the basement membrane as they initially invade the lymphatic or vascular beds during dissemination and as they penetrate their target tissues. […]
Invasion of cancer cells treated with [VO(SO4)(Me2-Phen)2] was assayed using Matrigel-coated Costar 24-well transwell cell culture chambers (“Boyden chambers”) with 8.0-μm-pore polycarbonate filter inserts as described previously (Narla et al., Clin Cancer Res, 4: 2463-2471, 1998; Ghosh et al., Anticancer Drug Des, 14: 403-410, 1999; Albini et al., J Cell Biol, 105: 1867-1872, 1987). […] The cells were trypsinized, washed twice with serum-free medium containing BSA, counted and resuspended in a serum-free medium at 1×10^5 cells/ml. […] The invasive cells that migrated to the lower side of the filter were fixed, stained with Hema-3 solution and counted under a light microscope. Five to 10 random fields per filter were counted to determine the invasive fraction. The invasive fractions of cells treated with [VO(SO4)(Me2-Phen)2] were compared to those of DMSO-treated control cells and the percent inhibition of invasiveness was determined. […]

Structure (SMILES): Cc1ccnc2c1ccc1c(C)ccnc12.Cc1ccnc2c1ccc1c(C)ccnc12.O=S(=O)([O-])[O-].[O]=[V+2] [[VO(SO4)(Me2-Phen)2], bis(4,7-dimethyl-1,10-phenanthroline) sulfatooxovanadium (IV)]
- IC50 [1]: 1600 ± 700 nM
- IC50 (MDA-MB-231 cells): 600 ± 300 nM
